Patent US10577363B2, “Substituted piperidine compounds” (EPIZYME, INC., priority 2014, dated 2020)

Experiments:
[1] = tested on: esophageal, liver and breast cancer cell lines; details: several esophageal, dose-dependent; cited from earlier work
SMYD3 [2] = molecular target: T1, SMYD3 (Homo sapiens (Human), UniProt Q9H7B4); test: SMYD3 cell assay (Trimethyl-MEKK2 In-Cell Western in 293T/17 cells); format: cell-based
Procedure, shortened: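 In-Cell Western ratio of trimethyl-Lys260 MEKK2 to anti-flag signal; percent inhibition from DMSO and maximum-inhibition controls, IC50 by non-linear regression, triplicates.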

SMYD3 [3] = molecular target: T1, SMYD3; test: SMYD3 biochemical assay (SPA, 3H-SAM methylation of MEKK2 protein substrate)
Procedure, shortened: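 Native full-length human SMYD3 (E. coli-expressed, tags removed) was preincubated with compound for 30 min at room temperature in 25 mM Tris-Cl pH 8.0, 1 mM TCEP, 0.005% BSG, 0.005% Tween 20. Reaction was started with 3H-SAM plus GST-MEKK2, quenched with 100 uM unlabeled SAM, and read by SPA scintillation counting.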

[4] = IC50 values are an average of n = 1 to n = 50, read-out: SMYD3 Cell IC50*
[5] = IC50 values are an average of n = 1 to n = 50, read-out: SMYD3 Biochem IC50*

T1 sequence (Q9H7B4 whole entry): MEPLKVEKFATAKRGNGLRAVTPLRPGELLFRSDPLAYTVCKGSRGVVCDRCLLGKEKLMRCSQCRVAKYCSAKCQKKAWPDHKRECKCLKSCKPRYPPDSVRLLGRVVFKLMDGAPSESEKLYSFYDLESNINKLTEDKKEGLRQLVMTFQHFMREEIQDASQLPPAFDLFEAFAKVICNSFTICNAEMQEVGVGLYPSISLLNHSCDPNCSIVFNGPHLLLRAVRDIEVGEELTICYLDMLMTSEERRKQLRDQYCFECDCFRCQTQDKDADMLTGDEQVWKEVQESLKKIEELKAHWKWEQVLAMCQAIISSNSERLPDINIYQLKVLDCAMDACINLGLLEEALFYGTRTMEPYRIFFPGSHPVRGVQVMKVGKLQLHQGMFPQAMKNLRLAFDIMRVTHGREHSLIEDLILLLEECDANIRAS

Compound | inhibition of proliferation of cancer cell lines [1] | IC50 (SMYD3 [2]; [4]) | IC50 (SMYD3 [3]; [5]) | IC50 (SMYD3 [2]; Table 2A, read-out: SMYD3 Cell IC50) | IC50 (SMYD3 [3]; Table 2A, read-out: SMYD3 Biochem IC50)
Cc1cn(CCN2CCN(c3ccccc3-c3cc(C#N)cc(C(=O)NCCCN4CCCC4)c3)CC2)c2ccccc12 [LLY-507] | inhibited the proliferation |  |  |  | 
CN1CCCC1CS(=O)(=O)N1[C@@H]2CC[C@H]1C[C@@H](NC(=O)c1cc(C3CC3)on1)C2 (stereo partly drawn) [compound 982, 5-cyclopropyl-N-((1R,3r,5S)-8-(((1-methylpyrrolidin-2-yl)methyl)sulfonyl)-8-azabicyclo[3.2.1]octan-3-yl)isoxazole-3-carboxamide] |  | 819 nM | 134 nM |  | 
CC[C@H]1CNCCN1S(=O)(=O)N1CC[C@H](NC(=O)c2cc(C3CC3)on2)C[C@@H]1C [compound 983, 5-cyclopropyl-N-((2S,4S)-1-(((S)-2-ethylpiperazin-1-yl)sulfonyl)-2-methylpiperidin-4-yl)isoxazole-3-carboxamide] |  | 931 nM | 142 nM |  | 
C[C@H]1C[C@@H](NC(=O)c2cc(C3CC3)on2)CCN1S(=O)(=O)N1CCNC[C@@H]1c1ccccc1 [compound 984, 5-cyclopropyl-N-((2S,4S)-2-methyl-1-(((S)-2-phenylpiperazin-1-yl)sulfonyl)piperidin-4-yl)isoxazole-3-carboxamide] |  | 1850 nM | 142 nM |  | 
O=C(N[C@H]1C[C@H]2CC[C@@H](C1)N2S(=O)(=O)[C@H]1CCCN(CCO)C1)c1cc(C2CC2)on1 [compound 985, 5-cyclopropyl-N-((1R,3S,5S)-8-(((S)-1-(2-hydroxyethyl)piperidin-3-yl)sulfonyl)-8-azabicyclo[3.2.1]octan-3-yl)isoxazole-3-carboxamide] |  | 708 nM | 155 nM |  | 
COCCNCc1ccc(S(=O)(=O)N2[C@@H]3CC[C@H]2C[C@@H](NC(=O)c2cc(C4CC4)on2)C3)cc1 [compound 986, 5-cyclopropyl-N-((1R,3r,5S)-8-((4-(((2-methoxyethyl)amino)methyl)phenyl)sulfonyl)-8-azabicyclo[3.2.1]octan-3-yl)isoxazole-3-carboxamide] |  | 807 nM | 156 nM |  | 
CCc1cc(C(=O)N[C@@H]2CCN(S(=O)(=O)c3ccc(C(C)(C)N)cc3)[C@@H](C)C2)no1 [compound 987, N-((2S,4R)-1-((4-(2-aminopropan-2-yl)phenyl)sulfonyl)-2-methylpiperidin-4-yl)-5-ethylisoxazole-3-carboxamide] |  | 776 nM | 158 nM |  | 
CN(C)C(C)(C)c1ccc(S(=O)(=O)N2[C@@H]3CC[C@H]2C[C@@H](NC(=O)c2cc(C4CC4)on2)C3)cc1 [compound 988, 5-cyclopropyl-N-((1R,3r,5S)-8-((4-(2-(dimethylamino)propan-2-yl)phenyl)sulfonyl)-8-azabicyclo[3.2.1]octan-3-yl)isoxazole-3-carboxamide] |  | 1670 nM | 158 nM |  | 
C[C@H]1C[C@@H](NC(=O)c2cc(C3CC3)on2)CCN1S(=O)(=O)CC1CCCCN1 (stereo partly drawn) [compound 989, 5-cyclopropyl-N-((2S,4S)-2-methyl-1-((piperidin-2-ylmethyl)sulfonyl)piperidin-4-yl)isoxazole-3-carboxamide] |  | 1160 nM | 175 nM |  | 
O=C(N[C@H]1C[C@H]2CC[C@@H](C1)N2S(=O)(=O)N1CC2CCC(C1)N2CCC(F)(F)F)c1cc(C2CC2)on1 [compound 990, 5-cyclopropyl-N-((1R,3r,5S)-8-((8-(3,3,3-trifluoropropyl)-3,8-diazabicyclo[3.2.1]octan-3-yl)sulfonyl)-8-azabicyclo[3.2.1]octan-3-yl)isoxazole-3-carboxamide] |  | 935 nM | 184 nM |  | 
CCC[C@H]1C[C@@H](NC(=O)c2cc(C3CC3)on2)CCN1S(=O)(=O)CC1CCN(C)CC1 [compound 991, 5-cyclopropyl-N-((2S,4S)-1-(((1-methylpiperidin-4-yl)methyl)sulfonyl)-2-propylpiperidin-4-yl)isoxazole-3-carboxamide] |  | 2190 nM | 187 nM |  | 
C[C@H]1CN(S(=O)(=O)N2CC[C@H](NC(=O)c3cc(C4CC4)on3)C[C@@H]2C)[C@@H](C)CN1 [compound 992, 5-cyclopropyl-N-((2S,4S)-1-(((2S,5S)-2,5-dimethylpiperazin-1-yl)sulfonyl)-2-methylpiperidin-4-yl)isoxazole-3-carboxamide] |  | 1120 nM | 188 nM |  | 
CC(C)Cc1cc(C(=O)N[C@H]2C[C@H]3CC[C@@H](C2)N3S(=O)(=O)CC2CCN(C)CC2)no1 [compound 993, 5-isobutyl-N-((1R,3r,5S)-8-(((1-methylpiperidin-4-yl)methyl)sulfonyl)-8-azabicyclo[3.2.1]octan-3-yl)isoxazole-3-carboxamide] |  | 2770 nM | 206 nM |  | 
N-((2S,4S)-1-(3,8-diaza-bicyclo[3.2.1]octan-8-ylsulfonyl)-2-methylpiperidin-4-yl)-5-cyclopropylisoxazole-3-carboxamide [Cpd. No. 555] |  |  |  | 23.9 nM | 3.7 nM
